Where two headings read alike, the source gives them in different places. Each block holds one compound with its values, some of them ahead of it.
Assays:
NALM-6 [1] = test: cells; type: cell-based; conditions: Homo sapiens, NALM-6, read-out: NALM-6 IC50
MOLT-3 [2] = test: cells; type: cell-based; conditions: Homo sapiens, MOLT-3, read-out: MOLT-3 IC50
ALL1 = test: cells; type: cell-based; conditions: Homo sapiens, read-out: ALL1 IC50
RS4;11 = test: cells; type: cell-based; conditions: Homo sapiens, RS4-11, read-out: RS4;11 IC50
BT20 [3] = test: cells; conditions: Homo sapiens, BT-20, read-out: BT20 IC50
NALM-6 cells = test: MTT cytotoxicity over 1-4 days versus arsenic trioxide, NALM-6; conditions: MTT, doses 0.07 μM to 5 μM
NALM-6 [4] = test: Anti-proliferative activity (colony counts), NALM-6; type: cell-based, human
Text: (§1) The dose-responsive anti-proliferative activity of various organic arsenic acid substituted compounds against leukemic cell lines (NALM-6 and MOLT-3) is shown below in Table 3. FIGS. 3A-3F show dose response curves in ALL1, NALM-6, and MOLT-3 cells.

MOLT-3 [5] = test: Anti-proliferative activity (colony counts), MOLT-3; type: cell-based, human
Text: as §1

primary leukemic cells = test: MTT cytotoxicity against primary leukemic cells; conditions: cells from 5 leukemia patients, FIGS. 4A-4E
BT20 [6] = test system: BT20
[7] = test system: leukemic cell lines (NALM-6, MOLT-3, ALL1, RS4;11); test: cells; conditions: Homo sapiens, read-out: IC50 values in leukemic cell lines
[8] = NALM-6, concentration 0.1 (mM as printed)
[9] = NALM-6, concentration 1 (mM as printed)
[10] = NALM-6, concentration 10 (mM as printed)
[11] = NALM-6, concentration 100 (mM as printed)
[12] = MOLT-3, concentration 0.1 (mM as printed)
[13] = MOLT-3, concentration 1 (mM as printed)
[14] = MOLT-3, concentration 10 (mM as printed)
[15] = MOLT-3, concentration 100 (mM as printed)

melting point: > 300 °C
Compound: COc1cc2ncnc(Nc3ccc([As](=O)(O)O)cc3)c2cc1OC

Compound: COc1cc2ncnc(Nc3ccccc3[As](=O)(O)O)c2cc1OC [WHI-P378, 4-(2′-phenylarsenic acid)amino-6,7-dimethoxyquinazoline]
IC50 (NALM-6 [1]): 46.6 µM
IC50 (MOLT-3 [2]): 67.3 µM
IC50 (ALL1): 128 µM
IC50 (RS4;11): 115 µM
melting point: > 300 °C
IC50 (BT20 [3]): > 250 µM

Compound: Arsenic trioxide [reference compound]
IC50 (NALM-6 cells; read-out: Cytotoxicity against NALM-6 cells IC50, Day 1, 1 day of treatment): 3.8 µM
IC50 (NALM-6 cells; read-out: Cytotoxicity against NALM-6 cells IC50, Day 2, 2 days of treatment): 3.2 µM
IC50 (NALM-6 cells; read-out: Cytotoxicity against NALM-6 cells IC50, Day 3, 3 days of treatment): 2 µM
IC50 (NALM-6 cells; read-out: Cytotoxicity against NALM-6 cells IC50, Day 4, 4 days of treatment): 1.2 µM

Compound: COc1cc2ncnc(Nc3ccc(N=Nc4ccc([As](=O)(O)O)cc4)cc3)c2cc1OC [WHI-P273, 4-[(6′,7′-Dimethoxyquinazoline-4′)-aminophenylazo]phenyl arsenic acid]
IC50 (NALM-6 [1]): 7.3 µM
IC50 (MOLT-3 [2]): 12.1 µM
IC50 (ALL1): 8.2 µM
IC50 (RS4;11): 7.7 µM
% Inhibition (NALM-6 [4]; [8]): 13.7%
Mean No. of Colonies/10^6 Cells (NALM-6 [4]; [8]): 3638(3260, 4016) Colonies/10^6 Cells
% Inhibition (NALM-6 [4]; [9]): 98.5%
Mean No. of Colonies/10^6 Cells (NALM-6 [4]; [9]): 61(24, 96) Colonies/10^6 Cells
% Inhibition (NALM-6 [4]; [10]): 100%
Mean No. of Colonies/10^6 Cells (NALM-6 [4]; [10]): 0 Colonies/10^6 Cells
% Inhibition (NALM-6 [4]; [11]): 100%
Mean No. of Colonies/10^6 Cells (NALM-6 [4]; [11]): 0 Colonies/10^6 Cells
Mean No. of Colonies/10^6 Cells (MOLT-3 [5]; [12]): 1230(968, 1492) Colonies/10^6 Cells
% Inhibition (MOLT-3 [5]; [13]): 75%
Mean No. of Colonies/10^6 Cells (MOLT-3 [5]; [13]): 264(216, 312) Colonies/10^6 Cells
% Inhibition (MOLT-3 [5]; [14]): 100%
Mean No. of Colonies/10^6 Cells (MOLT-3 [5]; [14]): 0 Colonies/10^6 Cells
% Inhibition (MOLT-3 [5]; [15]): 100%
Mean No. of Colonies/10^6 Cells (MOLT-3 [5]; [15]): 0 Colonies/10^6 Cells
IC50 (BT20 [3]): > 250 µM
cytotoxic activity against primary leukemic cells (in words) (primary leukemic cells): susceptible to the cytotoxic effects

Compound: O=[As](O)(O)c1ccc(N=Nc2ccc(Nc3ncnc4[nH]cnc34)cc2)cc1 [WHI-P371, 6-[(4′-Aminophenylazo)-phenylarsenic acid]-purine]
IC50 (NALM-6 [1]): 15.2 µM
IC50 (MOLT-3 [2]): 21.6 µM
IC50 (ALL1): 24.5 µM
IC50 (RS4;11): 16.2 µM
% Inhibition (NALM-6 [4]; [8]): 8.8%
Mean No. of Colonies/10^6 Cells (NALM-6 [4]; [8]): 3846(3696, 3996) Colonies/10^6 Cells
% Inhibition (NALM-6 [4]; [9]): 76.4%
Mean No. of Colonies/10^6 Cells (NALM-6 [4]; [9]): 994(616, 1372) Colonies/10^6 Cells
% Inhibition (NALM-6 [4]; [10]): 100%
Mean No. of Colonies/10^6 Cells (NALM-6 [4]; [10]): 0 Colonies/10^6 Cells
% Inhibition (NALM-6 [4]; [11]): 100%
Mean No. of Colonies/10^6 Cells (NALM-6 [4]; [11]): 0 Colonies/10^6 Cells
Mean No. of Colonies/10^6 Cells (MOLT-3 [5]; [12]): 1098(1004, 1192) Colonies/10^6 Cells
% Inhibition (MOLT-3 [5]; [13]): 27.9%
Mean No. of Colonies/10^6 Cells (MOLT-3 [5]; [13]): 761(678, 844) Colonies/10^6 Cells
% Inhibition (MOLT-3 [5]; [14]): 100%
Mean No. of Colonies/10^6 Cells (MOLT-3 [5]; [14]): 0 Colonies/10^6 Cells
% Inhibition (MOLT-3 [5]; [15]): 100%
Mean No. of Colonies/10^6 Cells (MOLT-3 [5]; [15]): 0 Colonies/10^6 Cells
melting point: > 300 °C
IC50 (BT20 [3]): > 250 µM
cytotoxic activity against primary leukemic cells (in words) (primary leukemic cells): susceptible to the cytotoxic effects

Compound: CSc1nccc(Nc2ccc(N=Nc3ccc([As](=O)(O)O)cc3)cc2)n1 [WHI-P370, 2-Methylthio-4-[(4′-aminophenylazo)-phenylarsenic acid]pyrimidine]
IC50 (NALM-6 [1]): 5.98 µM
IC50 (MOLT-3 [2]): 2.9 µM
IC50 (ALL1): 1.9 µM
IC50 (RS4;11): 4.8 µM
% Inhibition (NALM-6 [4]; [8]): 30.9%
Mean No. of Colonies/10^6 Cells (NALM-6 [4]; [8]): 2194(2860, 2968) Colonies/10^6 Cells
% Inhibition (NALM-6 [4]; [9]): 100%
Mean No. of Colonies/10^6 Cells (NALM-6 [4]; [9]): 0 Colonies/10^6 Cells
% Inhibition (NALM-6 [4]; [10]): 100%
Mean No. of Colonies/10^6 Cells (NALM-6 [4]; [10]): 0 Colonies/10^6 Cells
% Inhibition (NALM-6 [4]; [11]): 100%
Mean No. of Colonies/10^6 Cells (NALM-6 [4]; [11]): 0 Colonies/10^6 Cells
% Inhibition (MOLT-3 [5]; [12]): 6.1%
Mean No. of Colonies/10^6 Cells (MOLT-3 [5]; [12]): 992(896, 1088) Colonies/10^6 Cells
% Inhibition (MOLT-3 [5]; [13]): 100%
Mean No. of Colonies/10^6 Cells (MOLT-3 [5]; [13]): 0 Colonies/10^6 Cells
% Inhibition (MOLT-3 [5]; [14]): 100%
Mean No. of Colonies/10^6 Cells (MOLT-3 [5]; [14]): 0 Colonies/10^6 Cells
% Inhibition (MOLT-3 [5]; [15]): 100%
Mean No. of Colonies/10^6 Cells (MOLT-3 [5]; [15]): 0 Colonies/10^6 Cells
melting point: 240 to 242 °C
cytotoxic against the breast cancer cell line BT20 (in words) (BT20 [6]): cytotoxic
IC50 (BT20 [3]): 67.8 µM
cytotoxic activity against primary leukemic cells (in words) (primary leukemic cells): susceptible to the cytotoxic effects

Compound: Nc1nc(N)nc(Nc2ccc(N=Nc3ccc([As](=O)(O)O)cc3)cc2)n1 [WHI-P374, 2,6-Diamino-4[(4′-aminophenylazo)-phenylarsenic acid]-1,3,5-triazine]
IC50 (NALM-6 [1]): 50.1 µM
IC50 (MOLT-3 [2]): 104 µM
IC50 (ALL1): 55.8 µM
IC50 (RS4;11): 53.6 µM
melting point: > 300 °C
cytotoxic against the breast cancer cell line BT20 (in words) (BT20 [6]): cytotoxic
IC50 (BT20 [3]): 13.9 µM

Compound: CSc1nccc(Nc2ccc([As](=O)(O)O)cc2)n1 [WHI-P380, 2-Methylthio-4-(4′-phenylarsenic acid)-aminopyrimidine]
IC50 (NALM-6 [1]): 1.7 µM
IC50 (MOLT-3 [2]): 14.2 µM
IC50 (ALL1): 6.2 µM
IC50 (RS4;11): 10.2 µM
% Inhibition (NALM-6 [4]; [8]): 66.9%
Mean No. of Colonies/10^6 Cells (NALM-6 [4]; [8]): 400(116, 684) Colonies/10^6 Cells
% Inhibition (NALM-6 [4]; [9]): 99.8%
Mean No. of Colonies/10^6 Cells (NALM-6 [4]; [9]): 2(3, 1) Colonies/10^6 Cells
% Inhibition (NALM-6 [4]; [10]): 100%
Mean No. of Colonies/10^6 Cells (NALM-6 [4]; [10]): 0 Colonies/10^6 Cells
% Inhibition (NALM-6 [4]; [11]): 100%
Mean No. of Colonies/10^6 Cells (NALM-6 [4]; [11]): 0 Colonies/10^6 Cells
% Inhibition (MOLT-3 [5]; [12]): 52.8%
Mean No. of Colonies/10^6 Cells (MOLT-3 [5]; [12]): 678(624, 732) Colonies/10^6 Cells
% Inhibition (MOLT-3 [5]; [13]): 69.7%
Mean No. of Colonies/10^6 Cells (MOLT-3 [5]; [13]): 436(272, 600) Colonies/10^6 Cells
% Inhibition (MOLT-3 [5]; [14]): 100%
Mean No. of Colonies/10^6 Cells (MOLT-3 [5]; [14]): 0 Colonies/10^6 Cells
% Inhibition (MOLT-3 [5]; [15]): 100%
Mean No. of Colonies/10^6 Cells (MOLT-3 [5]; [15]): 0 Colonies/10^6 Cells
melting point: > 300 °C
IC50 (BT20 [3]): 239 µM
IC50 [7]: 1.7 to 14.2 µM
cytotoxic activity against primary leukemic cells (in words) (primary leukemic cells): susceptible to the cytotoxic effects
